In US5712298A, “Fluoroalkoxy-substituted benzamides and their use as cyclic nucleotide phosphodiesterase inhibitors” (BYK Gulden Lomberg Chemische Fabrik GmbH, priority 1993, dated 1998):

Experiments:
PDE IV = test: Inhibition of PDE IV activity; format: biochemical
conscious guinea-pigs = test: Effect on dyspnoea and migration of proinflammatory cells into the airway lumen after allergic reaction of conscious guinea-pigs; format: in vivo, guinea-pig; details: 30 μmol/kg p.o.
Description: 2. Effect of dyspnoea and migration of proinflammatory (immunocompetent) cells from the blood vessels into the airway lumen after allergic reaction of conscious guinea-pigs
Immunocompetent blood cells (leucocytes) appear in the airway lumens under the influence of allergic, inflammatory reactions. This pathological migration can support itself, i.e. lead to chronic changes, and plays an important part as a pathological mechanism of chronic airway obstruction (of asthma) but also of allergic rhinitis and/or conjunctivitis. The inhibition of the migration by pharmaceuticals is an important therapeutic principle and is a measure of antiallergic or antiinflammatory actions.
The experimental animal methodology employed for the measurement of the acute effect of an allergic reaction on respiration and cell migration itself essentially follows the descriptions of P. A. Hutson et al. (Am. Rev. Respir. Dis., 137, 548, 1988) and J. P. Tarayre et al. (J. Parmacol. Meth., 23, 13, 1990) and also R. Beume et al. (Atemw. Lungenkrkh., 11, 324, 1985).
A defined guinea-pig collective is sensitized intraperitoneally to ovalbumin (20 μg+20 mg of Al(OH)3). 14 days later, the animals are tested:
0 h provocation of the allergic reaction, thoracographic latency time measurement until occurrence of dyspnoea, non-occurrence=protective action.
+24 h anaesthesia and bronchoalveolar lavage: Determination of the total cell number, counting of the differential cell picture in the lavage, determination of the protein content in the cell-free supernatant of the lavage.
The controlled used in each case was 1 random sample of sensitized animals: Placebo treatment+sham provocation or placebo treatment+provocation.
The compound of Example 1 (=compound 1), 30 μmol/kg p.o., acts on the parameters of this relation as follows: […]

[1] = bronchoalveolar lavage +24 h after provocation
[2] = cell-free supernatant of lavage +24 h after provocation

SMILES: COc1cc(C(=O)Nc2c(Cl)cncc2Cl)ccc1OC(F)F [Compound 1, N-(3,5-Dichloropyrid-4-yl)-4-difluoromethoxy-3-methoxybenzamide]
- -log IC50 (PDE IV): 8.64
- Passage of cells and protein after provocation (conscious guinea-pigs; base values = placebo + sham provocation): inhibits these passages to base values
- Eosinophilic granulocytes, median (conscious guinea-pigs; [1]): 1.2 × 10^6 /10 ml
- Eosinophilic granulocytes, median: bracketed value (relative to placebo + sham provocation = 1) (conscious guinea-pigs; [1]): 1.5
- Eosinophilic granulocytes, min./max. (conscious guinea-pigs; [1]): 0.6-2.5 × 10^6 /10 ml
- Macrophages, median (conscious guinea-pigs; [1]): 1.2 × 10^6 /10 ml
- Macrophages, median: bracketed value (relative to placebo + sham provocation = 1) (conscious guinea-pigs; [1]): 0.8
- Macrophages, min./max. (conscious guinea-pigs; [1]): 0.9-2.3 × 10^6 /10 ml
- Neutrophilic granulocytes, median (conscious guinea-pigs; [1]): 0.0 × 10^6 /10 ml
- Neutrophilic granulocytes, median: bracketed value (relative to placebo + sham provocation = 1) (conscious guinea-pigs; [1]): 0
- Neutrophilic granulocytes, min./max. (conscious guinea-pigs; [1]): 0.0-0.08 × 10^6 /10 ml
- Total leucocytes, median (conscious guinea-pigs; [1]): 2.5 × 10^6 /10 ml
- Total leucocytes, median: bracketed value (relative to placebo + sham provocation = 1) (conscious guinea-pigs; [1]): 1.1
- Total leucocytes, min./max. (conscious guinea-pigs; [1]): 1.5-4.2 × 10^6 /10 ml
- Protein content, median (conscious guinea-pigs; [2]): 4.1 mg/10 ml
- Protein content, median: bracketed value (relative to placebo + sham provocation = 1) (conscious guinea-pigs; [2]): 1.1
- Protein content, min./max. (conscious guinea-pigs; [2]): 2.6-11.0 mg/10 ml
- N, of which protected (conscious guinea-pigs; ovalbumin provocation, N = 14, non-occurrence of dyspnoea = protective action): 8 animals

SMILES: O=C(Nc1c(Cl)cncc1Cl)c1ccc(OC(F)F)c(OC(F)F)c1 [Compound 2, N-(3,5-Dichloropyrid-4-yl)-3,4-bis-difluoromethoxybenzamide]
- -log IC50 (PDE IV): 8.42

SMILES: O=C(Nc1c(Cl)cncc1Cl)c1ccc(OC(F)F)c(OCC2CCC2)c1 [Compound 3, N-(3,5-Dichloropyrid-4-yl)-3-cyclobutylmethoxy-4-difluoromethoxybenzamide]
- -log IC50 (PDE IV): 8.74

SMILES: O=C(Nc1c(Cl)cncc1Cl)c1ccc(OC(F)F)c(OC2CCCC2)c1 [Compound 4, N-(3,5-Dichloropyrid-4-yl)-3-cyclopentyloxy-4-difluoromethoxybenzamide]
- -log IC50 (PDE IV): 9.18
